{"source": "patent US20210395327A1", "about": "“Growth Hormone-Releasing Hormone Antagonists and Uses Thereof” (United States Government As Represented By The Department …, priority 2019, published 2021)", "key": {"[1]": {"system": "RT4 urothelial cancer cells", "assay": "In vitro cell viability, RT4", "type": "cell-based, human", "conditions": "antagonist 5 μM for 72 h, cell proliferation assay; MIA602 = 1", "description": "(§1) The inhibitory effects of the various synthesized GHRH antagonists were tested in cell proliferation assays in various human cancer cell lines including stomach cancer (KATOIII, N87), colon cancer (HT-29), urothelial cancer (J82, RT4), pancreatic cancer (PANC-1, CFPAC-1), prostatic cancer (PC3), breast cancer (MX-1, HCC1806), ovarian cancer (SK-OV-3, OVCAR-3) and lung cancer (HCC827, H460).\n(§2) Cell culture. Human cancer cell lines including pancreatic (PANC-1 and CFPAC-1), lung (HCC827 and H460), stomach (NCI-N87 and KATOIII), urothelial (J82, RT4), prostatic (PC3), breast (MX-1 and HCC 1806), colorectal (HT-29), and ovarian (SK-OV-3 and OVCAR-3) were obtained from the American Type Culture Collection (ATCC) and cultured at 37° C. in a humidified 95% air/5% CO2 atmosphere in the medium recommended by ATCC.\n(§3) In vitro cell viability. Cell viability was analyzed as follows: cancer cells including pancreatic (PANC-1 and CFPAC-1), lung (HCC827 and H460), stomach (NCI-N87 and KATOIII), urothelial (J82, RT4), prostatic (PC3) and breast (MX-1 and HCC 1806), colorectal (HT-29) and ovarian (SK-OV-3 and OVCAR-3) were grown on 96 well plates to ˜60% confluence, the cells were starved for 24 h in culture medium containing 0.5% FBS. Cells were then treated with GHRH antagonists MIA602 AVR compounds at concentrations of 1, 2.5 or 5 μM, or vehicle (0.1% DMSO) in quintuplicates for 72 hours. The medium was replaced every 48 hours. Cell viability was measured using CellTiter 96 aqueous one solution kit (Promega). Inhibitory effects of tested AVR compounds in comparison to that of MIA602 are presented as inhibitory potency.\n(§4) Inhibitory effects of selected AVR compounds in comparison to that of MIA602 are presented as inhibitory potency (e.g., percentage of inhibition). […] The cell lines tested including lung cancer HCC827 (FIG. 2A), pancreatic cancer CFPAC-1 (FIG. 2B), stomach cancer N87 (FIG. 2C), colon cancer HT-29 (FIG. 2D), breast cancers MX-1 and HCC1806 (FIGS. 2 E, F). […]"}, "[2]": {"system": "PC3 prostatic cancer cells", "assay": "In vitro cell viability, PC3", "type": "cell-based, human", "conditions": "antagonist 5 μM for 72 h, cell proliferation assay; MIA602 = 1", "description": "as §1, §2, §3, §4"}, "[3]": {"system": "gene expression in mouse lung tissue", "assay": "RNAseq and pathway analysis of lung tissue of bleomycin-treated mice", "type": "in vivo, C57Bl/6J mice", "conditions": "bleomycin 28 days, MIA-602 vs vehicle", "description": "RNA isolation. RNA was extracted from fixed lung tissue in paraffin blocks using a Quick-RNA™ FFPE Kit (R1008, Zymo Research, Irvine, Calif.) following the manufacturer's protocol (Patel P, Selvarajah S, Guerard K, Bartlett J, Lapointe J, Berman D, Okello J, Park P (2017). PLoS ONE 12:e0179732). Samples were deparaffinized, digested with proteinase K and decrosslinked at 65° C. for 15 minutes. RNA lysis buffer was added and mixed with ethanol. The mixtures were transferred to spin columns to isolate total RNA.\n(§5) RNAseq and Pathway analyses. At least 10 ng of total RNA was used as input for the KAPA RNA HyperPrep Kit with RiboErase (HMR) to create ribosomal RNA-depleted sequencing libraries, including sample indexing, to allow for multiplexing. Cluster generation and sequencing was done on the Illumina cBOT and HiSeq 3000 using reagents provided by Illumina, finally generating >32 million single-end 100 base reads per sample.\nDe-multiplexed FASTQ files were created with Illumina supplied scripts in BCL2FASTQ software (v2.17). […]\nGene counts were normalized using trimmed mean of M-values (TMM) method. Differential expression between groups was calculated with the exact test implemented in edgeR (Robinson M, McCarthy D, Smyth G (2010). Bioinformatics 26:139-140). […]"}, "[4]": {"system": "mouse lung fibroblasts (Mlg 2908)", "assay": "Annexin V-propidium iodide assay of lung fibroblasts", "type": "cell-based", "conditions": "24 hours, annexin-V/PI", "description": "(§6) Lung fibroblasts. Newborn mouse lung fibroblasts (Mlg 2908) were obtained from the American Type Culture Collection, Manassas, Va. and cultured in Eagle's minimal essential medium. Cells were grown in 6-well plates before incubation with 1 or 5 μM MIA-602 or vehicle, RNA isolation, and oxygen consumption measurements.\nAnnexin V-propidium iodide assay. Apoptosis and necrosis were assessed with annexin-V/propidium iodide staining (Annexin V: FITC Assay Kit, Bio Rad, Hercules, Calif. 94547) of lung fibroblasts incubated in 0, 1 or 5 μM MIA-602 for 24 hours (Rieger A, Nelson K, Konowalchuk J, Barreda D. (2011). J Visualized Experiments 50:e2597). Culture medium and trypsinized cells were collected and centrifuged at 400×g for 5 minutes. The pellet was resuspended in 100 μL annexin-V/propidium iodide. The suspension was incubated at 37° C. for 20 minutes, then washed with PBS and resuspended in 500 μL PBS and fluorescence quantified by Beckman Coulter Life Sciences CytoFLEX benchtop flow cytometer (Beckman Coulter, Inc., Brea, Calif.)."}, "[5]": {"system": "gene expression in normal mouse lung fibroblasts", "assay": "RNAseq of cultured lung fibroblasts", "type": "cell-based", "conditions": "1 and 5 μM MIA-602, not exposed to bleomycin", "description": "as §6\nRNA was extracted from cultured fibroblasts using a Direct-zol RNA MicroPrep kit (R2060; Zymo Research, Irvine, Calif.). Cells were washed with PBS and lysed in TRIreagent™, then purified using Direct-zol RNA columns. DNase I treatment was done in columns and RNA eluted in DNase/Rnase-free water.\nas §5"}}, "note": "“Also recorded” adds a separate entry of the source. Non-standard residues stand in square brackets, D forms with d. Residues, ends and D or L forms follow the SMILES beside them. *: point of attachment. Phe(F5) = N[C@@H](Cc1c(F)c(F)c(F)c(F)c1F)C(=O)O; hArg = N=C(N)NCCCC[C@H](N)C(=O)O; 12Ado = NCCCCCCCCCCCC(=O)O; Nle = CCCC[C@H](N)C(=O)O; Orn = NCCC[C@H](N)C(=O)O; Abu = CC[C@H](N)C(=O)O; PhAc = O=C(Cc1ccccc1)*", "data": [{"smiles": "CCCC[C@H](NC(=O)[C@@H](NC(=O)[C@H](CC(=O)O)NC(=O)[C@H](CCC(N)=O)NC(=O)[C@H](CC(C)C)NC(=O)[C@H](CC(C)C)NC(=O)[C@H](CCCN)NC(=O)[C@H](Cc1c[nH]cn1)NC(=O)[C@H](C)NC(=O)[C@H](CO)NC(=O)[C@H](CC(C)C)NC(=O)[C@H](CCC(N)=O)NC(=O)[C@H](CC)NC(=O)[C@H](CC(C)C)NC(=O)[C@@H](NC(=O)[C@H](CCCN)NC(=O)[C@H](Cc1c[nH]cn1)NC(=O)[C@H](Cc1ccc(OC)cc1)NC(=O)[C@H](CCCCNC(=N)N)NC(=O)[C@H](C)NC(=O)[C@@H](NC(=O)[C@H](Cc1c(F)c(F)c(F)c(F)c1F)NC(=O)[C@@H](NC(=O)[C@H](C)NC(=O)[C@H](CC(=O)O)NC(=O)[C@@H](CCCNC(=N)N)NC(=O)[C@H](Cc1ccc(O)cc1)NC(=O)CCCCCCCCCCCNC(=O)Cc1ccccc1)[C@@H](C)CC)[C@@H](C)O)C(C)C)[C@@H](C)CC)C(=O)N[C@H](CCCNC(=N)N)C(=O)N[C@@H](CCCCNC(=N)N)C(N)=O", "note": "[MIA-602, PhAC-Ada, Tyr D-Arg, Asp, Ala, Ile, 5FPhe, Thr, Ala, Har, Tyr(Me), His, Orn, Val, Leu, Abu, Gin, Leu, Ser, Ala, His, Om, Leu, Leu, Gin, Asp, Ile; Nle, D-Arg, Har NH2, reference compound] ({PhAc-12Ado}-Y[dR]DAI[Phe(F5)]TA[hArg]Y(Me)H[Orn]VL[Abu]QLSAH[Orn]LLQDI[Nle][dR][hArg]-NH2)", "values": [{"measurement": "relative inhibitory potency in comparison to MIA-602, Urothelial RT4", "setting": "[1]", "result": 1}, {"measurement": "relative inhibitory potency in comparison to MIA-602, Prostatic PC3", "setting": "[2]", "result": 1}, {"measurement": "lung gene expression, RNA-seq pathway analysis (in words)", "setting": "[3]", "result": "suppression of the adaptive immune response, T cell differentiation and activation and cytokine production; also recorded: downregulation of T cell receptor complex genes (CD3E, CD3G, CD4, and CD8A)"}, {"measurement": "cytolytic cell death", "setting": "[4]; 1 μM", "result": "9.3±1.1", "unit": "%"}, {"measurement": "cytolytic cell death", "setting": "[4]; 5 μM", "result": "34.9±2.5", "unit": "%"}, {"measurement": "fibroblast gene expression, RNA-seq (in words)", "setting": "[5]", "result": "significant downregulation of genes involved in collagen fibril organization, cell-matrix adhesion and elastic fiber assembly"}]}]}
